Test results as given in ChEMBL document CHEMBL3632478, “Design, synthesis and biological evaluation of imidazopyridine/imidazopyrimidine-benzimidazole conjugates as potential anticancer agents” (Medchemcomm, 2015).
pIC50: −log10 of the molar value. The source made the active and inactive calls. The rule behind the calls is not given here.

What follows are compounds tested on A549 (assay: Inhibition of microtubule organization in human A549 cells at 1 uM after 48 hrs by immunofluorescence microscopic analysis). Conditions: not given.
Type: cell-based
With `c1ccc(-c2nc3ncccn3c2-c2nc3ccccc3[nH]2)cc1` the inhibition was “Active”. With `COc1ccc(-c2nc3ncccn3c2-c2nc3ccc(C)cc3[nH]2)cc1` the inhibition was “Active”.

Each compound was assayed on A549 (assay: Cell cycle arrest in human A549 cells assessed as accumulation at G0/G1 phase at 2 uM after 48 hrs by propidium iodide based flow cytometry (reference value: 85.63%)). Conditions: not given.
Type: functional
In the case of `c1ccc(-c2nc3ncccn3c2-c2nc3ccccc3[nH]2)cc1`, the Activity was 64.8%. Compound `COc1ccc(-c2nc3ncccn3c2-c2nc3ccc(C)cc3[nH]2)cc1` has an Activity of 59.33%.

These compounds were tested on A549 (assay: Cell cycle arrest in human A549 cells assessed as accumulation at G0/G1 phase at 1 uM after 48 hrs by propidium iodide based flow cytometry (reference value: 85.63%)). Conditions: not given.
Type: functional
`c1ccc(-c2nc3ncccn3c2-c2nc3ccccc3[nH]2)cc1` showed an Activity of 83.5%. For `COc1ccc(-c2nc3ncccn3c2-c2nc3ccc(C)cc3[nH]2)cc1`, the Activity was 82.68%.

Each compound was assayed on A549 (assay: Induction of apoptosis in human A549 cells assessed as caspase-3 activation at 2 uM after 48 hrs by Ac-DEVD substrate based fluorescence assay relative to control). Conditions: not given.
Type: functional
`c1ccc(-c2nc3ncccn3c2-c2nc3ccccc3[nH]2)cc1` was tested, and the “fold change (FC)” value was 2. `COc1ccc(-c2nc3ncccn3c2-c2nc3ccc(C)cc3[nH]2)cc1` was tested, and the “fold change (FC)” value was 2.

What follows are compounds tested on A549 (assay: Induction of apoptosis in human A549 cells assessed as dead cells at 1 uM after 48 hrs by annexin V-FITC and propidium iodide double staining based flow cytometric analysis (Rvb =0.07%)). Conditions: not given.
Type: functional
Work on `c1ccc(-c2nc3ncccn3c2-c2nc3ccccc3[nH]2)cc1` yielded an Activity of 0.35%. For `COc1ccc(-c2nc3ncccn3c2-c2nc3ccc(C)cc3[nH]2)cc1`, the Activity was 0.22%.

Each compound was assayed on A549 (assay: Induction of apoptosis in human A549 cells assessed as DNA fragmentation at 1 uM after 48 hrs by ethidium bromide based agarose gel electrophoresis). Conditions: not given.
Type: functional, cell-based
For `c1ccc(-c2nc3ncccn3c2-c2nc3ccccc3[nH]2)cc1`, the Activity was “Active”. In the case of `COc1ccc(-c2nc3ncccn3c2-c2nc3ccc(C)cc3[nH]2)cc1`, the Activity was “Active”.

Each compound was assayed on A549 (assay: Induction of apoptosis in human A549 cells assessed as apoptotic bodies at 1 uM after 48 hrs by Hoechst 33342 based fluorescent microscopic analysis). Conditions: not given.
Type: functional, cell-based
In the case of `c1ccc(-c2nc3ncccn3c2-c2nc3ccccc3[nH]2)cc1`, the Activity was “Active”. With `COc1ccc(-c2nc3ncccn3c2-c2nc3ccc(C)cc3[nH]2)cc1` the Activity was “Active”.

What follows are compounds tested on A549 (assay: Induction of apoptosis in human A549 cells assessed as […] condensation at 1 uM after 48 hrs by Hoechst 33342 based fluorescent microscopic analysis). Conditions: not given.
Type: functional, cell-based
In the case of `c1ccc(-c2nc3ncccn3c2-c2nc3ccccc3[nH]2)cc1`, the Activity was “Active”. With `COc1ccc(-c2nc3ncccn3c2-c2nc3ccc(C)cc3[nH]2)cc1` the Activity was “Active”.

These compounds were tested on A549 (assay: Cell cycle arrest in human A549 cells assessed as accumulation at G2/M phase at 1 uM after 48 hrs by propidium iodide based flow cytometry (reference value: 10.39%)). Conditions: not given.
Type: functional
Work on `c1ccc(-c2nc3ncccn3c2-c2nc3ccccc3[nH]2)cc1` yielded an Activity of 12.6%. `COc1ccc(-c2nc3ncccn3c2-c2nc3ccc(C)cc3[nH]2)cc1` gave an Activity of 11.7%.

What follows are compounds tested on A549 (assay: Cell cycle arrest in human A549 cells assessed as accumulation at G2/M phase at 2 uM after 48 hrs by propidium iodide based flow cytometry (reference value: 10.39%)). Conditions: not given.
Type: functional
For `c1ccc(-c2nc3ncccn3c2-c2nc3ccccc3[nH]2)cc1`, the Activity was 33.8%. Compound `COc1ccc(-c2nc3ncccn3c2-c2nc3ccc(C)cc3[nH]2)cc1` has an Activity of 29%.

The compounds below were run on A549 (assay: Induction of apoptosis in human A549 cells assessed as viable cells at 1 uM after 48 hrs by annexin V-FITC and propidium iodide double staining based flow cytometric analysis (reference value: 99.79%)). Conditions: A549, 48 h, read-out: Activity.
Type: functional
Work on `c1ccc(-c2nc3ncccn3c2-c2nc3ccccc3[nH]2)cc1` yielded a viability at 1 µM of 91.9%. Compound `COc1ccc(-c2nc3ncccn3c2-c2nc3ccc(C)cc3[nH]2)cc1` has a viability at 1 µM of 90.2%.

These compounds were tested on A549 (assay: Induction of apoptosis in human A549 cells assessed as caspase-3 activation at 1 uM after 48 hrs by Ac-DEVD substrate based fluorescence assay relative to control). Conditions: not given.
Type: functional
In the case of `c1ccc(-c2nc3ncccn3c2-c2nc3ccccc3[nH]2)cc1`, the “fold change (FC)” value was 2. For `COc1ccc(-c2nc3ncccn3c2-c2nc3ccc(C)cc3[nH]2)cc1`, the “fold change (FC)” value was 2.

These compounds were tested on DU-145 (assay: Antiproliferative activity against human DU145 cells after 48 hrs by MTT assay). Conditions: DU-145, 48 h.
Type: functional, cell-based
With `c1ccc(-c2nc3ncccn3c2-c2nc3ccccc3[nH]2)cc1` the pIC50 was 5.63. Work on `COc1ccc(-c2nc3ncccn3c2-c2nc3ccc(C)cc3[nH]2)cc1` yielded a pIC50 of 5.15.

These compounds were tested on A549 (assay: Induction of apoptosis in human A549 cells assessed as late apoptotic cells at 2 uM after 48 hrs by annexin V-FITC and propidium iodide double staining based flow cytometric analysis (reference value: 0.14%)). Conditions: not given.
Type: functional
With `c1ccc(-c2nc3ncccn3c2-c2nc3ccccc3[nH]2)cc1` the Activity was 1.2%. With `COc1ccc(-c2nc3ncccn3c2-c2nc3ccc(C)cc3[nH]2)cc1` the Activity was 1.3%.

The compounds below were run on A549 (assay: Induction of apoptosis in human A549 cells assessed as nuclear fragmentation at 1 uM after 48 hrs by Hoechst 33342 based fluorescent microscopic analysis). Conditions: not given.
Type: functional, cell-based
`c1ccc(-c2nc3ncccn3c2-c2nc3ccccc3[nH]2)cc1` was tested, and the Activity was “Active”. In the case of `COc1ccc(-c2nc3ncccn3c2-c2nc3ccc(C)cc3[nH]2)cc1`, the Activity was “Active”.

The compounds below were run on A549 (assay: Induction of apoptosis in human A549 cells assessed as late apoptotic cells at 1 uM after 48 hrs by annexin V-FITC and propidium iodide double staining based flow cytometric analysis (reference value: 0.14%)). Conditions: not given.
Type: functional
`c1ccc(-c2nc3ncccn3c2-c2nc3ccccc3[nH]2)cc1` showed an Activity of 2.69%. Work on `COc1ccc(-c2nc3ncccn3c2-c2nc3ccc(C)cc3[nH]2)cc1` yielded an Activity of 1.43%.

The compounds below were run on B16 (assay: Antiproliferative activity against mouse B16 cells after 48 hrs by MTT assay). Conditions: B16, 48 h.
Type: functional, cell-based
`c1ccc(-c2nc3ncccn3c2-c2nc3ccccc3[nH]2)cc1` gave a pIC50 of 4.98. In the case of `COc1ccc(-c2nc3ncccn3c2-c2nc3ccc(C)cc3[nH]2)cc1`, the pIC50 was 5.44.

Each compound was assayed on A549 (assay: Cell cycle arrest in human A549 cells assessed as accumulation at sub G1 phase at 1 uM after 48 hrs by propidium iodide based flow cytometry (reference value: 0.65%)). Conditions: not given.
Type: functional
`c1ccc(-c2nc3ncccn3c2-c2nc3ccccc3[nH]2)cc1` gave an Activity of 1.28%. `COc1ccc(-c2nc3ncccn3c2-c2nc3ccc(C)cc3[nH]2)cc1` showed an Activity of 0.76%.

What follows are compounds tested on A549 (assay: Induction of apoptosis in human A549 cells assessed as dead cells at 2 uM after 48 hrs by annexin V-FITC and propidium iodide double staining based flow cytometric analysis (Rvb =0.07%)). Conditions: not given.
Type: functional
Compound `c1ccc(-c2nc3ncccn3c2-c2nc3ccccc3[nH]2)cc1` has an Activity of 0.18%. Work on `COc1ccc(-c2nc3ncccn3c2-c2nc3ccc(C)cc3[nH]2)cc1` yielded an Activity of 0.07%.

The compounds below were run on A549 (assay: Cell cycle arrest in human A549 cells assessed as accumulation at S phase at 2 uM after 48 hrs by propidium iodide based flow cytometry (reference value: 3.59%)). Conditions: not given.
Type: functional
Compound `c1ccc(-c2nc3ncccn3c2-c2nc3ccccc3[nH]2)cc1` has an Activity of 2.88%. Compound `COc1ccc(-c2nc3ncccn3c2-c2nc3ccc(C)cc3[nH]2)cc1` has an Activity of 3.63%.

The compounds below were run against Tubulin (Sus scrofa, UniProt P02554+P02550) (assay: Inhibition of porcine brain tubulin polymerization after 1 hr by fluorescence assay). Conditions: not given.
In the case of `c1ccc(-c2nc3ncccn3c2-c2nc3ccccc3[nH]2)cc1`, the IC50 was 2.26 µM. Work on `COc1ccc(-c2nc3ncccn3c2-c2nc3ccc(C)cc3[nH]2)cc1` yielded an IC50 of 2.06 µM.

Each compound was assayed on A549 (assay: Induction of apoptosis in human A549 cells assessed as early apoptotic cells at 2 uM after 48 hrs by annexin V-FITC and propidium iodide double staining based flow cytometric analysis (reference value: 0%)). Conditions: not given.
Type: functional
Work on `c1ccc(-c2nc3ncccn3c2-c2nc3ccccc3[nH]2)cc1` yielded an Activity of 10.25%. In the case of `COc1ccc(-c2nc3ncccn3c2-c2nc3ccc(C)cc3[nH]2)cc1`, the Activity was 13.49%.

The compounds below were run on A549 (assay: Cell cycle arrest in human A549 cells assessed as accumulation at S phase at 1 uM after 48 hrs by propidium iodide based flow cytometry (reference value: 3.59%)). Conditions: not given.
Type: functional
For `c1ccc(-c2nc3ncccn3c2-c2nc3ccccc3[nH]2)cc1`, the Activity was 3.71%. `COc1ccc(-c2nc3ncccn3c2-c2nc3ccc(C)cc3[nH]2)cc1` showed an Activity of 3.65%.

These compounds were tested on A549 (assay: Antiproliferative activity against human A549 cells after 48 hrs by MTT assay). Conditions: A549, 48 h.
Type: functional, cell-based
`c1ccc(-c2nc3ncccn3c2-c2nc3ccccc3[nH]2)cc1` gave a pIC50 of 5.72. `COc1ccc(-c2nc3ncccn3c2-c2nc3ccc(C)cc3[nH]2)cc1` showed a pIC50 of 5.83.

The compounds below were run on HeLa (assay: Antiproliferative activity against human HeLa cells after 48 hrs by MTT assay). Conditions: not given.
Type: functional, cell-based
`c1ccc(-c2nc3ncccn3c2-c2nc3ccccc3[nH]2)cc1` was tested, and the pIC50 was 5.65. For `COc1ccc(-c2nc3ncccn3c2-c2nc3ccc(C)cc3[nH]2)cc1`, the pIC50 was 5.59.

The compounds below were run on A549 (assay: Induction of apoptosis in human A549 cells assessed as viable cells at 2 uM after 48 hrs by annexin V-FITC and propidium iodide double staining based flow cytometric analysis (reference value: 99.79%)). Conditions: A549, 48 h, read-out: Activity.
Type: functional
In the case of `c1ccc(-c2nc3ncccn3c2-c2nc3ccccc3[nH]2)cc1`, the viability at 2 µM was 88.4%. Work on `COc1ccc(-c2nc3ncccn3c2-c2nc3ccc(C)cc3[nH]2)cc1` yielded a viability at 2 µM of 85.1%.

Each compound was assayed against Tubulin (Sus scrofa) (UniProt P02554+P02550) (assay: Inhibition of porcine brain tubulin polymerization at 3 uM after 1 hr by fluorescence assay). Conditions: not given.
Tubulin (Sus scrofa), sequence (P02550 whole entry, looked up): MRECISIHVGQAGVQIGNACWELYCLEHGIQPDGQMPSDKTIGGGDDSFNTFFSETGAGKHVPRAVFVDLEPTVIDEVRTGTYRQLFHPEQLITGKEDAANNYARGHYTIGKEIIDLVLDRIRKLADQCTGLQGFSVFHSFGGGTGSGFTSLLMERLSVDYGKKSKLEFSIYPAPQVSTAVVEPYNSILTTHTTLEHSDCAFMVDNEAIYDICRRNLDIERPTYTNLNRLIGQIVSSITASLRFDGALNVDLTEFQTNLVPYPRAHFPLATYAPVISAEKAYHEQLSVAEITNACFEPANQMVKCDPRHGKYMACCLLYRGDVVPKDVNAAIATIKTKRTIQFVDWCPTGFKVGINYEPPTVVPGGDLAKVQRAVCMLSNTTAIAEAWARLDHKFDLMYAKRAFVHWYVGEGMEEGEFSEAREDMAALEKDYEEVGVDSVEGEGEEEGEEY
Tubulin (Sus scrofa), sequence (P02554 whole entry, looked up): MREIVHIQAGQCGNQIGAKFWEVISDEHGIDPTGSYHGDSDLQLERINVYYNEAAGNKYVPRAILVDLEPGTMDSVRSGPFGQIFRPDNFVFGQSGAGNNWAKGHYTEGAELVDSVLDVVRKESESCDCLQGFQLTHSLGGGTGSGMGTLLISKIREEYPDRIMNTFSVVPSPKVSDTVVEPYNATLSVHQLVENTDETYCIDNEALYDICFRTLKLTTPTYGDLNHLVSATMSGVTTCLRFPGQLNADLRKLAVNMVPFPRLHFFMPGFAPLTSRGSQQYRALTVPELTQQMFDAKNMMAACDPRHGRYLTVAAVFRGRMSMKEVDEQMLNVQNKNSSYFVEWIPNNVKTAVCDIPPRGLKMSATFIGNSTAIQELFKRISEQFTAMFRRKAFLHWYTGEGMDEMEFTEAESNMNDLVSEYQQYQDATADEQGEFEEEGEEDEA
`c1ccc(-c2nc3ncccn3c2-c2nc3ccccc3[nH]2)cc1` showed an inhibition of 60.5%. `COc1ccc(-c2nc3ncccn3c2-c2nc3ccc(C)cc3[nH]2)cc1` gave an inhibition of 61.1%.

These compounds were tested on A549 (assay: Induction of apoptosis in human A549 cells assessed as early apoptotic cells at 1 uM after 48 hrs by annexin V-FITC and propidium iodide double staining based flow cytometric analysis (reference value: 0%)). Conditions: not given.
Type: functional
For `c1ccc(-c2nc3ncccn3c2-c2nc3ccccc3[nH]2)cc1`, the Activity was 5.08%. In the case of `COc1ccc(-c2nc3ncccn3c2-c2nc3ccc(C)cc3[nH]2)cc1`, the Activity was 8.18%.

What follows are compounds tested on A549 (assay: Cell cycle arrest in human A549 cells assessed as accumulation at sub G1 phase at 2 uM after 48 hrs by propidium iodide based flow cytometry (reference value: 0.65%)). Conditions: not given.
Type: functional
In the case of `c1ccc(-c2nc3ncccn3c2-c2nc3ccccc3[nH]2)cc1`, the Activity was 2.7%. Work on `COc1ccc(-c2nc3ncccn3c2-c2nc3ccc(C)cc3[nH]2)cc1` yielded an Activity of 2.19%.
